{
  "source": "paper PMC7924852",
  "about": "“The Emericellipsins A–E from an Alkalophilic Fungus Emericellopsis alkalina Show Potent Activity against Multidrug-Resistant Pathogenic Fungi” (Journal of Fungi, 2021)",
  "key": {"C. krusei 1447": {"system": "C. krusei 1447", "assay": "Broth microdilution MIC and MFC (CLSI)", "type": "cell-based"}, "A. fumigatus 390 m [1]": {"system": "A. fumigatus 390 m", "assay": "Disc-diffusion antifungal assay", "type": "cell-based, Aspergillus fumigatus", "conditions": "40 µg/disc, pathogenic clinical isolate"}, "Candida albicans 1402": {"system": "Candida albicans 1402", "assay": "Broth microdilution MIC and MFC (CLSI)", "type": "cell-based"}, "[2]": {"system": "MDA-MB-231 (breast cancer line)", "assay": "MTT cytotoxicity assay", "type": "cell-based", "conditions": "72 h, three experiments, each in triplicate", "description": "(§1) Experiments for determining the cytotoxic activity of the compound in MTT assays were performed as previously described. The following tumor cell lines were used for this study: HCT-116 (colon cancer cell line), B16 (mouse melanoma cell line), K-562 (leukemia cell line), MDA-MB-231 (breast cancer line), and MCF-7 (breast cancer cell). Human postnatal fibroblasts were used as a normal cell line, and doxorubicin was used as a positive control. The cell lines were cultured in Dulbecco modified Eagle’s medium supplemented with 5% fetal calf serum, 2 mM Lglutamine, 100 U/mL penicillin, and […] streptomycin at 37 °C, 5% CO2 in a humidified atmosphere. Experiments were carried out on cells in the logarithmic phase of growth. The peptide was dissolved in DMSO as a 10 mM stock solution, followed by serial dilutions in water immediately before the experiment. Briefly, cells (5 × 10^3 in […] of culture medium) were plated in a 96-well plate and treated with 0.1% DMSO (blank control) or with […] of the peptide (0.10‒50 μM; each concentration in duplicate) for 72 h. After incubation with peptide, […] of aqueous MTT solution (3-(4,5-dimethylthiazol-2-yl)-2,5-diphenyltetrazolium bromide, 5 mg/mL) were added into each well for 2‒3 h. Formazan was dissolved in DMSO, and the absorbance at 570 nm was measured. The cytotoxicity at a given EmiA concentration was calculated as the percentage of absorbance in wells with peptide-treated cells compared to that of blank control cells (100%). The IC50 (50% growth inhibitory concentration) was defined as the concentration of EmiA that inhibited MTT conversion by 50%. All the experiments were repeated three times, each time in triplicate. EmiA was tested at a range of concentrations, 0.1‒10 μM."}, "[3]": {"system": "HCT-116 (colon cancer cell line)", "assay": "MTT cytotoxicity assay", "type": "cell-based", "conditions": "72 h, three experiments, each in triplicate", "description": "as §1"}, "[4]": {"system": "HPF (human postnatal fibroblasts, normal cell line)", "assay": "MTT cytotoxicity assay", "type": "cell-based", "description": "as §1"}, "[5]": {"system": "MCF-7 (breast cancer cell)", "assay": "MTT cytotoxicity assay", "type": "cell-based", "conditions": "72 h, three experiments, each in triplicate", "description": "as §1"}, "[6]": {"system": "B16 (mouse melanoma cell line)", "assay": "MTT cytotoxicity assay", "type": "cell-based", "conditions": "72 h, three experiments, each in triplicate", "description": "as §1"}, "A. niger 1133 m": {"system": "A. niger 1133 m", "assay": "Disc-diffusion antifungal assay", "type": "cell-based, Aspergillus niger", "conditions": "40 µg/disc, pathogenic clinical isolate"}, "A. fumigatus 390 m [7]": {"system": "A. fumigatus 390 m", "assay": "Broth two-fold microdilution MIC (CLSI)", "type": "cell-based, Aspergillus fumigatus", "conditions": "A. fumigatus 390 m clinical isolate; RPMI 1640 pH 7.0, 35 °C, 48 h"}, "[8]": {"system": "Aspergillus niger ATCC 16404", "assay": "Disc-diffusion antifungal assay", "type": "cell-based", "conditions": "40 µg/disc; A. niger ATCC 16404"}, "[9]": {"system": "clinical yeast isolates (Candida, Cryptococcus)", "assay": "Broth microdilution MIC/MFC, pathogenic multidrug yeast strains", "type": "cell-based", "conditions": "isolates of C. albicans, C. glabrata and C. neoformans"}, "A. terreus 3 K [10]": {"system": "A. terreus 3 K", "assay": "Disc-diffusion antifungal assay", "type": "cell-based", "conditions": "40 µg/disc"}, "A. fumigatus VKM F-37 [11]": {"system": "A. fumigatus VKM F-37", "assay": "Disc-diffusion antifungal assay", "type": "cell-based, Aspergillus fumigatus", "conditions": "40 µg/disc"}, "A. terreus 497 [12]": {"system": "A. terreus 497", "assay": "Disc-diffusion antifungal assay", "type": "cell-based", "conditions": "40 µg/disc; A. terreus 497, pathogenic clinical isolate"}, "[13]": {"system": "K-562 (leukemia cell line)", "assay": "MTT cytotoxicity assay", "type": "cell-based", "conditions": "72 h, three experiments, each in triplicate"}, "[14]": {"system": "Cryptococcus neoformans 297", "assay": "Broth microdilution MIC and MFC (CLSI)", "type": "cell-based"}, "[15]": {"system": "isolates of Aspergillus spp.", "assay": "Broth microdilution MIC, ranges over mould isolates", "type": "cell-based", "conditions": "range over opportunistic and clinical isolates of Aspergillus spp. (Table 4)"}, "HepG2 cell line": {"system": "HepG2 cell line", "conditions": "previous study; cited from earlier work", "from_the_text": "(§2) Accordingly, despite the high IC50 values for this molecule, fairly significant amounts of antibiotic are required to suppress the cell growth in vitro. The calculated therapeutic index value is sufficiently high due to a low cytotoxicity level for normal cells, which is an undeniable advantage over both pre-scorubicin and most other antitumor compou ..."}, "Hela cell line": {"system": "Hela cell line", "conditions": "previous study; cited from earlier work", "from_the_text": "as §2"}, "C. laurentii 325m": {"system": "C. laurentii 325m", "assay": "Broth microdilution MIC and MFC (CLSI)", "type": "cell-based, Cr. laurentii"}, "A. terreus 3 K [16]": {"system": "A. terreus 3 K", "assay": "Broth two-fold microdilution MIC (CLSI)", "type": "cell-based", "conditions": "A. terreus 3 K; RPMI 1640 pH 7.0, 35 °C, 48 h"}, "A. terreus 497 [17]": {"system": "A. terreus 497", "assay": "Broth two-fold microdilution MIC (CLSI)", "type": "cell-based", "conditions": "A. terreus 497 clinical isolate; RPMI 1640 pH 7.0, 35 °C, 48 h"}, "C. glabrata 1402": {"system": "C. glabrata 1402", "assay": "Broth microdilution MIC and MFC (CLSI)", "type": "cell-based"}, "A. niger ATCC 16404": {"system": "A. niger ATCC 16404", "assay": "Broth two-fold microdilution MIC (CLSI)", "type": "cell-based, Aspergillus niger", "conditions": "A. niger ATCC 16404; RPMI 1640 pH 7.0, 35 °C, 48 h, no visible growth"}, "C. parapsilosis 571": {"system": "C. parapsilosis 571", "assay": "Broth microdilution MIC and MFC (CLSI)", "type": "cell-based"}, "A. fumigatus VKM F-37 [18]": {"system": "A. fumigatus VKM F-37", "assay": "Broth two-fold microdilution MIC (CLSI)", "type": "cell-based, Aspergillus fumigatus", "conditions": "A. fumigatus VKM F-37; RPMI 1640 pH 7.0, 35 °C, 48 h"}},
  "data": [
    {"substance": "Methyldecanoyl-MePro-AHMOD-Ala-Aib-Ile-Iva-βAla-Alaol-Glyol [EmiA, emericellipsin A, nonribosomal lipopeptaibol, major compound of E. alkalina VKPM F1428]", "values": [
      {"measurement": "MFC", "setting": "C. krusei 1447; C. krusei 1447, lowest concentration causing 95% death", "value": 2, "unit": "µg/mL"},
      {"measurement": "MIC", "setting": "C. krusei 1447; C. krusei 1447 clinical isolate, RPMI 1640 pH 7.0, 35 °C, 24 h", "value": 0.5, "unit": "µg/mL"},
      {"measurement": "Zone of Inhibition", "setting": "A. fumigatus 390 m [1]", "value": "20 ± 0.40", "unit": "mm"},
      {"measurement": "MFC", "setting": "Candida albicans 1402; Candida albicans 1402, lowest concentration causing 95% death, plated on PDA agar", "value": 4, "unit": "µg/mL"},
      {"measurement": "MIC", "setting": "Candida albicans 1402; Candida albicans 1402 clinical isolate, RPMI 1640 pH 7.0, 35 °C, 24 h", "value": 2, "unit": "µg/mL"},
      {"measurement": "IC50", "setting": "[2]", "value": "8 ± 1.04", "unit": "µM"},
      {"measurement": "IC50", "setting": "[3]", "value": "2.3 ± 0.3", "unit": "µM"},
      {"measurement": "IC50", "setting": "[4]; HPF normal fibroblasts, MTT, 72 h, three experiments, each in triplicate", "value": "11.5 ± 1.5", "unit": "µM"},
      {"measurement": "antiproliferative activity inferior to doxorubicin", "setting": "[4]; interaction with PFH, relative to doxorubicin", "value": 60, "unit": "times"},
      {"measurement": "IC50", "setting": "[5]", "value": "11 ± 1.2", "unit": "µM"},
      {"measurement": "IC50", "setting": "[6]", "value": "16 ± 2.08", "unit": "µM"},
      {"measurement": "Zone of Inhibition", "setting": "A. niger 1133 m", "value": "18 ± 0.27", "unit": "mm"},
      {"measurement": "Minimal Inhibitory Concentration (MIC)", "setting": "A. fumigatus 390 m [7]", "value": 2, "unit": "µg/mL"},
      {"measurement": "Zone of Inhibition", "setting": "[8]", "value": "25 ± 0.21", "unit": "mm"},
      {"measurement": "MIC/MFCs range", "setting": "[9]", "value": "0.25 to 4", "unit": "µg/mL"},
      {"measurement": "Zone of Inhibition", "setting": "A. terreus 3 K [10]", "value": "12 ± 0.25", "unit": "mm"},
      {"measurement": "Zone of Inhibition", "setting": "A. fumigatus VKM F-37 [11]", "value": "20 ± 0.3", "unit": "mm"},
      {"measurement": "Zone of Inhibition", "setting": "A. terreus 497 [12]", "value": "14 ± 0.28", "unit": "mm"},
      {"measurement": "IC50", "setting": "[13]", "value": "1 ± 0.14", "unit": "µM"},
      {"measurement": "MFC", "setting": "[14]; Cryptococcus neoformans 297, lowest concentration causing 95% death", "value": 0.5, "unit": "µg/mL"},
      {"measurement": "MIC", "setting": "[14]; Cryptococcus neoformans 297 clinical isolate, RPMI 1640 pH 7.0, 35 °C, 24 h", "value": 0.5, "unit": "µg/mL"},
      {"measurement": "MIC range", "setting": "[15]", "value": "0.5 to 4", "unit": "µg/mL"},
      {"measurement": "EC50", "setting": "HepG2 cell line", "value": 2.8, "unit": "µM"},
      {"measurement": "EC50", "setting": "Hela cell line", "value": "< 0.5", "unit": "µM"},
      {"measurement": "MIC", "setting": "C. laurentii 325m; C. laurentii 325m clinical isolate, RPMI 1640 pH 7.0, 35 °C, 24 h", "value": 0.5, "unit": "µg/mL"},
      {"measurement": "MFC", "setting": "C. laurentii 325m; C. laurentii 325m, lowest concentration causing 95% death", "value": 0.5, "unit": "µg/mL"},
      {"measurement": "Minimal Inhibitory Concentration (MIC)", "setting": "A. terreus 3 K [16]", "value": 0.5, "unit": "µg/mL"},
      {"measurement": "Minimal Inhibitory Concentration (MIC)", "setting": "A. terreus 497 [17]", "value": 1, "unit": "µg/mL"},
      {"measurement": "MFC", "setting": "C. glabrata 1402; C. glabrata 1402, lowest concentration causing 95% death", "value": 0.5, "unit": "µg/mL"},
      {"measurement": "MIC", "setting": "C. glabrata 1402; C. glabrata 1402 clinical isolate, RPMI 1640 pH 7.0, 35 °C, 24 h", "value": 0.25, "unit": "µg/mL"},
      {"measurement": "Minimal Inhibitory Concentration (MIC)", "setting": "A. niger ATCC 16404", "value": 4, "unit": "µg/mL"},
      {"measurement": "MFC", "setting": "C. parapsilosis 571; C. parapsilosis 571, lowest concentration causing 95% death", "value": 1, "unit": "µg/mL"},
      {"measurement": "MIC", "setting": "C. parapsilosis 571; C. parapsilosis 571 clinical isolate, RPMI 1640 pH 7.0, 35 °C, 24 h", "value": 1, "unit": "µg/mL"},
      {"measurement": "Minimal Inhibitory Concentration (MIC)", "setting": "A. fumigatus VKM F-37 [18]", "value": 2, "unit": "µg/mL"}
    ]}
  ]
}
